The record followed here is ChEMBL document CHEMBL4765458, “Synthesis and biological evaluation of organoselenium (NSAIDs-SeCN and SeCF) derivatives as potential anticancer agents” (Eur J Med Chem, 2020).

Assay [1] has as its system SW480. The assay can be described thus: Cytotoxicity against human SW480 cells assessed as reduction in cell viability measured after 24 hrs by MTT assay. Format: functional, cell-based. The settings on record: SW480, 24 h.
The test system of assay [2] is SW480. Put plainly: Cytotoxicity against human SW480 cells assessed as reduction in cell viability measured after 48 hrs by MTT assay. The settings on record: SW480, 48 h. Format: functional, cell-based.
Assay [3] has as its system SW480. Put plainly: Cytotoxicity against human SW480 cells assessed as reduction in cell viability measured after 72 hrs by MTT assay. The note with it: SW480, 72 h. Format: functional, cell-based.
Assay [4] concerns HeLa. Put plainly: Cytotoxicity against human HeLa cells assessed as reduction in cell viability measured after 24 hrs by MTT assay. The class given is functional, cell-based.
The test system of assay [5] is HeLa. The assay can be described thus: Cytotoxicity against human HeLa cells assessed as reduction in cell viability measured after 48 hrs by MTT assay. Format: functional, cell-based.
Assay [6] concerns HeLa. Put plainly: Cytotoxicity against human HeLa cells assessed as reduction in cell viability measured after 72 hrs by MTT assay. Format: functional, cell-based.
Assay [7] concerns A549. The assay can be described thus: Cytotoxicity against human A549 cells assessed as reduction in cell viability measured after 24 hrs by MTT assay. The settings on record: A549, 24 h. The class given is functional, cell-based.
Assay [8] deals with A549. The assay can be described thus: Cytotoxicity against human A549 cells assessed as reduction in cell viability measured after 72 hrs by MTT assay. The class given is functional, cell-based. The settings on record: A549, 72 h.
Assay [9] has as its system MCF7. The assay can be described thus: Cytotoxicity against human MCF7 cells assessed as reduction in cell viability measured after 24 hrs by MTT assay. Format: functional, cell-based. The note with it: MCF7, 24 h.
The subject of assay [10] is MCF7. Put plainly: Cytotoxicity against human MCF7 cells assessed as reduction in cell viability measured after 48 hrs by MTT assay. The note with it: MCF7, 48 h. The class given is functional, cell-based.
Assay [11] relates to MCF7. Put plainly: Cytotoxicity against human MCF7 cells assessed as reduction in cell viability measured after 72 hrs by MTT assay. Format: functional, cell-based. The note with it: MCF7, 72 h.
Assay [12] in a line: Antioxidant activity assessed as DPPH radical scavenging activity incubated for 30 mins under dark condition relative to control. Format: functional. Set-up: concentration or dose not given beside the values.
For assay [13], the system named is A549. Put plainly: cells. The note with it: Homo sapiens, A549, 48 h.

Consider `COc1ccc2c(c1)c(CC(=O)NCCC[Se]C#N)c(C)n2C(=O)c1ccc(Cl)cc1`, for which the IC50 in the assay on SW480 [1] amounted to 16.3 µM; with SW480 [2], 18.2 µM; in the assay on SW480 [3], 14.2 µM; in the assay on HeLa [4], 32.1 µM; in the assay on HeLa [5], 24.4 µM; with HeLa [6] it was 19.6 µM. Also, the IC50 in the assay with A549 [7] was 28.5 µM; with A549 [8] it was above 50 µM; in the assay on MCF7 [9], 28.3 µM; in the assay on MCF7 [10] it was above 50 µM; with MCF7 [11], above 50 µM; with A549 [13], 31.2 µM. In addition, the inhibition in [12] was found to be 49.6%.

For the compound `N#C[Se]CCCNC(=O)c1ccccc1Nc1cccc(C(F)(F)F)c1`, the IC50 was 25.2 µM in the assay with SW480 [1]; 17.4 µM with SW480 [2]; 24.7 µM with SW480 [3]; 38.2 µM in the assay with HeLa [4]; 33.4 µM in the assay on HeLa [5]; above 50 µM in the assay on HeLa [6]. Also, the IC50 in the assay on A549 [7] was 26.1 µM; in the assay with A549 [8] it was 36.4 µM; in the assay with MCF7 [9] it was 14.2 µM; in the assay on MCF7 [10], 16.4 µM; in the assay on MCF7 [11] it was 13.3 µM; in the assay on A549 [13], 28.3 µM.

On to `CC1=C(CC(=O)O)c2cc(F)ccc2/C1=C\c1ccc([S+](C)[O-])cc1` (stereo not drawn), for which the half-inhibitory concentration (IC50) in the assay with SW480 [1], in the assay with SW480 [2], in the assay on SW480 [3], with HeLa [4], with HeLa [5] and in the assay with HeLa [6] was above 50 µM each time. In addition, the concentration for half-maximal inhibition (IC50) in the assay on A549 [7], with A549 [8], in the assay on MCF7 [9], in the assay with MCF7 [10], in the assay with MCF7 [11] and in the assay with A549 [13] was above 50 µM each time.

Consider `O=C(NCCC[Se]C(F)(F)F)c1ccccc1Nc1cccc(C(F)(F)F)c1`, for which the IC50 is 22.2 µM in the assay on SW480 [1]; 15.7 µM in the assay on SW480 [2]; 19.7 µM in the assay with SW480 [3]; 33.2 µM in the assay on HeLa [4]; 30.3 µM in the assay on HeLa [5]; above 50 µM with HeLa [6]. The IC50 came to 18.1 µM with A549 [7]; 26.4 µM in the assay on A549 [8]; 7.2 µM in the assay on MCF7 [9]; 8.4 µM in the assay with MCF7 [10]; 9.3 µM in the assay with MCF7 [11]; 21.3 µM with A549 [13].

Consider `O=c1[nH]cc(F)c(=O)[nH]1` [FLUOROURACIL], for which the half-maximal inhibitory concentration (IC50) was found to be 15.3 µM with SW480 [1]; 12.4 µM in the assay with SW480 [2]; 20.6 µM with HeLa [4]; 15.5 µM in the assay on HeLa [5]; 12.7 µM in the assay on HeLa [6]; 25.3 µM in the assay on A549 [7]. The IC50 with A549 [8] is 17.3 µM; with MCF7 [9] it was 8.5 µM; in the assay on MCF7 [10], 10.4 µM; in the assay with MCF7 [11] it was 12.6 µM.

For the compound `CC(C(=O)O)c1cccc(C(=O)c2ccccc2)c1` (stereo not drawn) [KETOPROFEN], the IC50 in the assay with SW480 [1], with SW480 [2], with SW480 [3], with HeLa [4], with HeLa [5] and in the assay on HeLa [6] was above 50 µM each time. Further, the IC50 in the assay with A549 [7], in the assay with A549 [8], in the assay with MCF7 [9], in the assay on MCF7 [10], in the assay with MCF7 [11] and in the assay on A549 [13] was above 50 µM in each case.

`COc1ccc2c(c1)c(CC(=O)O)c(C)n2C(=O)c1ccc(Cl)cc1` [INDOMETHACIN]: the half-inhibitory concentration (IC50) with SW480 [1], in the assay with SW480 [2], in the assay on SW480 [3], in the assay on HeLa [4], in the assay on HeLa [5] and in the assay on HeLa [6] was above 50 µM each time. Besides, the concentration for half-maximal inhibition (IC50) with A549 [7], with A549 [8], in the assay on MCF7 [9], with MCF7 [10], in the assay with MCF7 [11] and in the assay on A549 [13] was above 50 µM throughout.
